From patent publication US11208412B2 (DAEGU-GYEONGBUK MEDICAL INNOVATION FOUNDATION, priority 2017, dated 2021)

Assays:
Experiment in all cases: Kinase selectivity, DiscoverX scanMAX Kinase assay panel (% control)
Assay type in all cases: binding
[1] = molecular target: T1, kinases of the scanMAX Kinase assay panel (Homo sapiens, UniProt Q9Y616); conditions: IRAK3; 1 uM
T1 construct: purchased DiscoverX Co. (contract measurement) scanMAX Kinase assay panel
T1 sequence (Q9Y616 1-596): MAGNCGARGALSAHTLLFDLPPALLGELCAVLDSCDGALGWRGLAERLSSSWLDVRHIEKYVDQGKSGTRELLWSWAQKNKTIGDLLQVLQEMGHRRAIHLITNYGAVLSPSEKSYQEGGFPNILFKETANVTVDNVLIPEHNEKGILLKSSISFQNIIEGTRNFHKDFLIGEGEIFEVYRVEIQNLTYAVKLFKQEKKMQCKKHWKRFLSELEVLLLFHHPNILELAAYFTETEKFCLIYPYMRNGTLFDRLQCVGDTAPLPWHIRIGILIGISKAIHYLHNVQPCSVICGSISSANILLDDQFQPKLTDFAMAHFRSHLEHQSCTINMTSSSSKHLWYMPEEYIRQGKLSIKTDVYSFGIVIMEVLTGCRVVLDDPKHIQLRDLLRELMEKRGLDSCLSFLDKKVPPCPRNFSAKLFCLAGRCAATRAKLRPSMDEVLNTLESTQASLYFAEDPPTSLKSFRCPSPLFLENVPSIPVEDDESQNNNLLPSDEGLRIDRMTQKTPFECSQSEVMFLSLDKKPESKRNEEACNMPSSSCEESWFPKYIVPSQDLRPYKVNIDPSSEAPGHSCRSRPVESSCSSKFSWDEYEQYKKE
How it was run: (§1)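 Compounds were tested at 1 uM (in DMSO) against each panel kinase. % control was calculated as (compound − positive control)/(negative control − positive control)×100, where the positive control gives 0% and DMSO gives 100%. Activity toward a kinase was called at % control <35%.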

[2] = molecular target: T2, kinases of the scanMAX Kinase assay panel (Homo sapiens, UniProt Q9H4A3); conditions: kinase WNK1; 1 uM in DMSO
T2 construct: purchased DiscoverX Co. (contract measurement) scanMAX Kinase assay panel
T2 sequence (Q9H4A3 whole entry): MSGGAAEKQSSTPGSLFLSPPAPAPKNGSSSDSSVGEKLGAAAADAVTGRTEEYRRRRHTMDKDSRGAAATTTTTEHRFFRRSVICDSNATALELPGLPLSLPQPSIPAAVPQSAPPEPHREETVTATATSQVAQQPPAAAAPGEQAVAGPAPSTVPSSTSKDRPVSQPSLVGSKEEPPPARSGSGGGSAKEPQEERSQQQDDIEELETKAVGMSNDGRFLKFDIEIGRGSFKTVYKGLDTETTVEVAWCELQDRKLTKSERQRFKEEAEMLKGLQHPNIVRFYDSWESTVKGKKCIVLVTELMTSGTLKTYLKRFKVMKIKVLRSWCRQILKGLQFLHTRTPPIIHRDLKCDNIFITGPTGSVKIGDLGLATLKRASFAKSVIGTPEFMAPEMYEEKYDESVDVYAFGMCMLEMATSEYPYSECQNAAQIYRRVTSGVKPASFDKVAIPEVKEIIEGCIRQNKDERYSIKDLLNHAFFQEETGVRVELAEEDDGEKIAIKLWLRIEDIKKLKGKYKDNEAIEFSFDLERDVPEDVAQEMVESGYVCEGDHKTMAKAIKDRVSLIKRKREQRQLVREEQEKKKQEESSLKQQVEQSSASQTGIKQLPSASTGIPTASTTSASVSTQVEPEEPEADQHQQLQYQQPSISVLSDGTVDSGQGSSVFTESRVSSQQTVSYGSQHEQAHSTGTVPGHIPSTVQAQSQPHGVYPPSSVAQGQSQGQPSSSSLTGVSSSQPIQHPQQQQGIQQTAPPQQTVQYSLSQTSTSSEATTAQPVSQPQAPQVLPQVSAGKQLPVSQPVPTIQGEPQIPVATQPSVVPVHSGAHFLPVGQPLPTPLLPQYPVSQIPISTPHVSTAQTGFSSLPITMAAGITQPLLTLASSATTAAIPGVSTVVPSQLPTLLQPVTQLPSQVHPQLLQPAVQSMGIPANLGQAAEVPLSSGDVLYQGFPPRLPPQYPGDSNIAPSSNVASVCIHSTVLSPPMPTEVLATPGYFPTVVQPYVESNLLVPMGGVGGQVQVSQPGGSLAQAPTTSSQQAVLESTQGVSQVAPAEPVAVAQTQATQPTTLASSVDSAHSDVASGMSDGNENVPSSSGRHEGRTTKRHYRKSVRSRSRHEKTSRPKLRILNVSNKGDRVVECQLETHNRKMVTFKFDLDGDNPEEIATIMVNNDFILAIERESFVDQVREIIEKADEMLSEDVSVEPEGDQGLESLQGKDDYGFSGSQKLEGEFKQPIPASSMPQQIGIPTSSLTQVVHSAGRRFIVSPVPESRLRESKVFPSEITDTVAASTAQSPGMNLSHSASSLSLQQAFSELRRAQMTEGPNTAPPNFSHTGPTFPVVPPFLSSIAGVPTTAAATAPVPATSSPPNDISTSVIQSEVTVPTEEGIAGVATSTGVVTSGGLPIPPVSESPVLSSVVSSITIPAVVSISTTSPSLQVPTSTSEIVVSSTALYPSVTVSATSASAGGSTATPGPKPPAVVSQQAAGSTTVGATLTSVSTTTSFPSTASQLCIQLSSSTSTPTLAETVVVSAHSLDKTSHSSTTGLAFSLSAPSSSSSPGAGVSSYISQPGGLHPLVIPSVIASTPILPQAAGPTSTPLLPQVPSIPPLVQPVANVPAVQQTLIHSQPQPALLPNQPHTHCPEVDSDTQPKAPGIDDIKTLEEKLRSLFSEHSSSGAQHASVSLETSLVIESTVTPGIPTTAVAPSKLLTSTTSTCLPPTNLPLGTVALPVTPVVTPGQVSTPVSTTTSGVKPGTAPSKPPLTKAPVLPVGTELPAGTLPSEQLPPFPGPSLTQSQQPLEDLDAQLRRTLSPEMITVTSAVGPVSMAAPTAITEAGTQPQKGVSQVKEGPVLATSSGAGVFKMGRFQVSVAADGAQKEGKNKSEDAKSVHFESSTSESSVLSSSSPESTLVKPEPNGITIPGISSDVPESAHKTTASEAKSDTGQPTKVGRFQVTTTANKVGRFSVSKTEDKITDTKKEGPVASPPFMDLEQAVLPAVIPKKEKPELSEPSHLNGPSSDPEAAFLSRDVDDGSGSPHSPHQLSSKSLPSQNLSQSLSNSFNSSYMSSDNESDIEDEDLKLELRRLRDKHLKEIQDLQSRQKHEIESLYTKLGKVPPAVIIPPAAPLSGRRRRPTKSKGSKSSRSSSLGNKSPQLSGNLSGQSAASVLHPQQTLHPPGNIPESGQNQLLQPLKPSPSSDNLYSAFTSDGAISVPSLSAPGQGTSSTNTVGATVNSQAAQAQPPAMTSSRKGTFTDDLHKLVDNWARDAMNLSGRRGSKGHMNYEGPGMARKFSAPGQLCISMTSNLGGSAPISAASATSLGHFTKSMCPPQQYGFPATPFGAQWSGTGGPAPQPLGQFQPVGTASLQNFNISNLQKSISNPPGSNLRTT
How it was run: as §1

[3] = molecular target: T3, kinases of the scanMAX Kinase assay panel (Homo sapiens, UniProt Q9UKI8); conditions: kinase TLK1; 1 uM in DMSO
T3 construct: purchased DiscoverX Co. (contract measurement) scanMAX Kinase assay panel
T3 sequence (Q9UKI8 1-766): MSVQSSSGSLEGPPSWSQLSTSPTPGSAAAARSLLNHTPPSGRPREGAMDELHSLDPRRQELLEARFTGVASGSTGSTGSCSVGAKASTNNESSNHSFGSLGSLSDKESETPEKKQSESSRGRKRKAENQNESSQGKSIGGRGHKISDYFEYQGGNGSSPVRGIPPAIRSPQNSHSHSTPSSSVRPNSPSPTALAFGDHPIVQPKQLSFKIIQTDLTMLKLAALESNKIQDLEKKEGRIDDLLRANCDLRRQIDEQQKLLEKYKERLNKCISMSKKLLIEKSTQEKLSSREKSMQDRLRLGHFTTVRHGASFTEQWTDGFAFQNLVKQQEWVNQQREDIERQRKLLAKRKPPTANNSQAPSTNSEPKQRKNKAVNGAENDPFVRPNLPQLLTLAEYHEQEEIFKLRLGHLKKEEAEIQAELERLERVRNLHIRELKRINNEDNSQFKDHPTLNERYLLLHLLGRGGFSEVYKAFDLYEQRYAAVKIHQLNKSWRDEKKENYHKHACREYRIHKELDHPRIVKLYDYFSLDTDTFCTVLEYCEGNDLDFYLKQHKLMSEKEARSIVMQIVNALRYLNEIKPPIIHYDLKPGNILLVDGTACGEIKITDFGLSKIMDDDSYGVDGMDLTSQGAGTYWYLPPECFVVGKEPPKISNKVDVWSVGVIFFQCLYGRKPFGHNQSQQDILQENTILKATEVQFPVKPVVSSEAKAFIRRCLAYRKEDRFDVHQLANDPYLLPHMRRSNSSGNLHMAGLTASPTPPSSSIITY
How it was run: as §1

[4] = molecular target: T4, kinases of the scanMAX Kinase assay panel (Homo sapiens, UniProt P36888, R834Q); conditions: FLT3(R834Q); 1 uM
T4 construct: purchased DiscoverX Co. (contract measurement) scanMAX Kinase assay panel
T4 sequence (P36888 27-993 R834Q): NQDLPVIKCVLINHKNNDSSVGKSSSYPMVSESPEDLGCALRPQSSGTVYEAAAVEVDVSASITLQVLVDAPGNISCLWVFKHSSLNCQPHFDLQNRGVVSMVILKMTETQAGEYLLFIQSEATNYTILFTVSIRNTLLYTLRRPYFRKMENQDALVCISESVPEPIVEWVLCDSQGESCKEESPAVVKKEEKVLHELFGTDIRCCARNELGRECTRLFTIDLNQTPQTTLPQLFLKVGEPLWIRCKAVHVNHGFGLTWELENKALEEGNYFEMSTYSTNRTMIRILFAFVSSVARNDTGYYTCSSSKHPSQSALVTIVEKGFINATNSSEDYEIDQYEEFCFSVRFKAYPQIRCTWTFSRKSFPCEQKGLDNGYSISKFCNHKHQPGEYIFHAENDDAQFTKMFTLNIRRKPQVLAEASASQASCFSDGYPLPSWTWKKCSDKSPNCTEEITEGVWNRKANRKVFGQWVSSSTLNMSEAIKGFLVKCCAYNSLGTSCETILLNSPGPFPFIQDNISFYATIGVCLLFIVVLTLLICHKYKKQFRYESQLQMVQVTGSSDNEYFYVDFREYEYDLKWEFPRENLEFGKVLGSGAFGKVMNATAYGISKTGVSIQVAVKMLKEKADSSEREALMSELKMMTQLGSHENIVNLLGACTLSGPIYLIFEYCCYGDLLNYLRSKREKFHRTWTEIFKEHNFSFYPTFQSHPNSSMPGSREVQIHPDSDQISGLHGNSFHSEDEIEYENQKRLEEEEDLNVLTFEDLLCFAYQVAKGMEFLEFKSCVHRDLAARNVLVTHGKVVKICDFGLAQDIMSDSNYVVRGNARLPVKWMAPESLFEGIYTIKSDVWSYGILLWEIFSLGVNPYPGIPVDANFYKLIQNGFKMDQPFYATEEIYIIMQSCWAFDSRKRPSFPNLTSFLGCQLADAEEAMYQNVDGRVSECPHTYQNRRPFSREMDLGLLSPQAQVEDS
How it was run: as §1

[5] = molecular target: T5, kinases of the scanMAX Kinase assay panel (Homo sapiens, UniProt P42338); conditions: PIK3CB; 1 uM
T5 construct: purchased DiscoverX Co. (contract measurement) scanMAX Kinase assay panel
T5 sequence (P42338 whole entry): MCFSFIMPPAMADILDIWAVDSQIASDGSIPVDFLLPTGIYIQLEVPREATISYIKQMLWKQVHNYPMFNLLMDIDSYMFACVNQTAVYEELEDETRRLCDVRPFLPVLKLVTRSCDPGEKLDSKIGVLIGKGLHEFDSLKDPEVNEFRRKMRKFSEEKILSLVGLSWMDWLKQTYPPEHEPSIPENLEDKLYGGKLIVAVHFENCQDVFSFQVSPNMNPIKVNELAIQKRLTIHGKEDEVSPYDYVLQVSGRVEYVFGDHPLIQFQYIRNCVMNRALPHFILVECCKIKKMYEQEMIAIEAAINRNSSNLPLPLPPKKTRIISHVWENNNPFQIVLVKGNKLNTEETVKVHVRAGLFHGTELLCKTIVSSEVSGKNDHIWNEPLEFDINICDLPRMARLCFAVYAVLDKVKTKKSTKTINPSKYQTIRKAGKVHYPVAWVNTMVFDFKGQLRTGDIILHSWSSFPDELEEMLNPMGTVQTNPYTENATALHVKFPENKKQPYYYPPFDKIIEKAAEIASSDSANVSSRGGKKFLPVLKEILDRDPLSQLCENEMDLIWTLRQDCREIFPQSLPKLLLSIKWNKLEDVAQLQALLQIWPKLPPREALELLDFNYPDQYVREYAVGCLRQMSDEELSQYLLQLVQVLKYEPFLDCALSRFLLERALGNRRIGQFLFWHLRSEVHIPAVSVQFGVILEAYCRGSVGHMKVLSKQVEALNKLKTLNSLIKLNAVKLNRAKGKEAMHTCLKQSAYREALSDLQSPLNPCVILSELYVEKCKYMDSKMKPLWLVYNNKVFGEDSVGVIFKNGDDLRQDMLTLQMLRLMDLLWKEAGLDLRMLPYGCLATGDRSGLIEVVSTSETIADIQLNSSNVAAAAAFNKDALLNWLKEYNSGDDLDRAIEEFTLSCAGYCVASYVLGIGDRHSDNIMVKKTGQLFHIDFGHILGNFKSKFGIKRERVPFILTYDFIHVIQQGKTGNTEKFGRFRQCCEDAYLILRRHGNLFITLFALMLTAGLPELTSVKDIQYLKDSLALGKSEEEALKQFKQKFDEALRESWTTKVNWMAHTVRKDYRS
How it was run: as §1

| SMILES | remaining binding at 1 µM [1] | remaining binding at 1 µM [2] | remaining binding at 1 µM [3] | remaining binding at 1 µM [4] | remaining binding at 1 µM [5] |
| --- | --- | --- | --- | --- | --- |
| CNc1nc(Nc2ccc(C(=O)N3CCOCC3)cc2OC)nc2[nH]cc(C#N)c12 [Example 1, 2-((2-methoxy-4-(morpholine-4-carbonyl)phenyl)amino)-4-(methylamino)-7H-pyrrolo[2,3-d]pyrimidine-5-carbonitrile] | 90% | 70% | 95% | 65% | 96% |
| CC1(Nc2nc(Nc3cnn([C@H]4CCN(C5COC5)C[C@@H]4F)c3Cl)nc3[nH]cc(C#N)c23)CC1 [Example 52, 2-((5-chloro-1-((3S,4S)-3-fluoro-1-(oxetane-3-yl)piperidine-4-yl)-1H-pyrazole-4-yl)amino)((1-methylcyclopropyl)amino)-7H-pyrrolo[2,3-d]pyrimidine-5-carbonitrile] | 3.9% | 99% | 78% | 7.8% | 100% |
| CCNc1nc(Nc2ccc(C(=O)N3CCC(N4CCOCC4)CC3)cc2OC)nc2[nH]cc(C(F)(F)F)c12 [Example 104, (4-((4-(ethylamino)-5-(trifluoromethyl)-7H-pyrrolo[2,3-d]pyrimidine-2-yl)amino)-3-methoxyphenyl)(4-morpholinopiperidine-1-yl)methanone] | 26% | 100% | 72% | 100% | 92% |
